Data from patent publication US20250345329A1, “HETEROARYL DERIVATIVE COMPOUND AND USES THEREOF” (VORONOI, INC., priority 2022, published 2025).
pIC50: −log10 of the molar value.

target: T1, human EGFR (d746-750/T790M/C797S) (Homo sapiens, UniProt P00533, C797S/DEL746-750/T790M); experiment: EGFR C797S enzyme inhibition activity (ADP-Glo kinase assay); format: biochemical; conditions: purified enzyme 3 ng, ATP 5 μM, 25° C., 1 hour, luminescence; read-out: EGFR DTC Enzyme IC50
T1 construct: human EGFR (d746-750/T790M/C797S) (668-end, SignalChem); purchased SignalChem
Method: <Experimental Example 1> Evaluation of EGFR C797S Enzyme Inhibition Activity
The compounds according to the present invention were reacted together with purified human EGFR (d746-750/T790M/C797S) (668-end, SignalChem) enzyme and a specific substrate and evaluated for enzyme inhibitory activity as described below. The reaction buffer consisted of 40 mM Tris-HCl pH 7.4, 20 mM MgCl2, 0.5 mg/ml BSA, and 50 μM DTT, and all reactions of the test substances were performed in reaction buffers. The compounds were serially diluted in 12 steps from a 10 mM DMSO stock, and the enzyme activity was measured at the final compound concentrations of 10, 3, 1, 0.3, 0.1, 0.03, 0.01, 0.003, 0.001, 0.0003, 0.0001, and 0 μM. In the assay, human EGFR (d746-750/T790M/C797S) (3 ng) enzyme was reacted with purified ATP (5 μM) and enzyme substrate (0.2 μg) at 25° C. for 1 hour, and the enzyme activity was determined using the in vitro ADP-Glo™ kinase assay (Promega). The enzyme activity inhibition was measured via luminescence by reacting the enzyme activity reaction solution, ADP-Glo reaction solution, and enzyme activity detection solution in a 2:2:1 ratio. Based on the luminescence of the enzyme activity of the solvent control group that was not treated with the compound, the degree of the enzyme activity inhibition depending on the treatment concentration of each compound was calculated, wherein the concentration of each compound that inhibited the enzyme activity by 50% was determined as the IC50 (nM) value, which was obtained using GraphPad Prism 8.4.3 (GraphPad software Inc., San Diego).

T1 sequence (P00533 with tags, fused parts or gaps DEL746-750/T790M/C797S): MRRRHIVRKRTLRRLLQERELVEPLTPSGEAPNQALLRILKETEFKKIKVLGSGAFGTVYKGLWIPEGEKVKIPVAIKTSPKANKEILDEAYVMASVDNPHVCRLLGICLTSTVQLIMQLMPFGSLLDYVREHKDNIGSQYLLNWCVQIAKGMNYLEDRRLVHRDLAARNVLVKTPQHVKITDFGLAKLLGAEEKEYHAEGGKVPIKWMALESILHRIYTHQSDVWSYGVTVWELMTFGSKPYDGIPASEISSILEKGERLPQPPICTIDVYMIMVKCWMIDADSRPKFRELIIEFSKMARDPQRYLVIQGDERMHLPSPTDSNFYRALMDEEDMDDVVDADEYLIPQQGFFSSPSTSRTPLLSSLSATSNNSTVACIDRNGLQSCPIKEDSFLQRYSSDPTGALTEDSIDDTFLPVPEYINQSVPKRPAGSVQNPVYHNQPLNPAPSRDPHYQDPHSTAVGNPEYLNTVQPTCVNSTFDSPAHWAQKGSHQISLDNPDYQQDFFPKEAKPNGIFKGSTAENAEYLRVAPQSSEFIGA

SMILES	pIC50
CC(C)Nc1cc(Nc2ccnc(N3CCN(S(C)(=O)=O)CC3)n2)ncc1C(=O)N1CC(CS(C)(=O)=O)C1 [Example 44, (4-(isopropylamino)-6-((2-(4-(methylsulfonyl)piper-azin-1-yl)pyrimidin-4-yl)amino)pyridin-3-yl)(3-((methylsulfonyl)meth-yl)azetidin-1-yl)methanone]	6.30 to 7.30
CC(C)Nc1cc(Nc2ccnc(N3CCNC(=O)C3)n2)ncc1C(=O)N1CC(CS(C)(=O)=O)C1 [Example 45, 4-(4-((4-(isopropylamino)-5-(3-((methylsulfonyl)meth-yl)azetidine-1-carbonyl)pyridin-2-yl)amino)pyrimidin-2-yl)piperazin-2-one]	6.30 to 7.30
CNCCCNC(=O)c1cnc(Nc2ccnc(-c3cnn(S(=O)(=O)C4CC4)c3)n2)cc1NC(C)C [Example 60, 6-((2-(1-(cyclopropylsulfonyl)-1H-pyrazol-4-yl)pyrimidin-4-yl)amino)-4-(isopropoylamino)-N-(3-(methylamino)propyl) nicotinamide]	> 7.30
CC(C)Nc1cc(Nc2ccnc(-c3cnn(S(=O)(=O)C4CC4)c3)n2)ncc1C(=O)NC1CCN(S(C)(=O)=O)CC1 [Example 69, 6-((2-(1-(cyclopropylsulfonyl)-1H-pyrazol-4-yl)pyrimidin-4-yl)amino)-4-(isopropylamino)-N-(1-(methylsulfonyl)piper-idin-4-yl)nicotinamide]	> 7.30
CNCCCNC(=O)c1cnc(Nc2ccnc(-c3cn[nH]c3)n2)cc1NC(C)C [Example 59, 6-((2-(1H-pyrazol-4-yl)pyrimidin-4-yl)amino)-4-(isopropylamino)-N-(3-(methylamino)propyl) nicotinamide]	> 7.30
CO[C@H]1CCN(c2nccc(Nc3cc(NC4CCOC4)c(C(=O)N4CC(CS(C)(=O)=O)C4)cn3)n2)C[C@H]1F (relative stereo) [Example 14, (6-((2-(cis-3-fluoro-4-methoxypiperidin-1-yl)pyrimidin-4-yl)amino)-4-((tetrahydrofuran-3-yl)amino)pyridin-3-yl)(3-((methylsulfonyl)meth-yl)azetidin-1-yl)methanone]	> 7.30
CC(C)Nc1cc(Nc2ccnc(-c3cnn(S(=O)(=O)C4CC4)c3)n2)ncc1C(=O)N(C)CCN(C)C [Example 26, 6-((2-(1-(cyclopropylsulfonyl)-1H-pyrazol-4-yl)pyrimidin-4-yl)amino)-N-(2-(dimethylamino)ethyl)-4-(isopropylamino)-N-methylnicotinamide]	6.30 to 7.30
CO[C@H]1CCN(c2nccc(Nc3cc(NC(C)C)c(C(=O)N4CC(CS(C)(=O)=O)C4)cn3)n2)C[C@H]1F (relative stereo) [Example 2, (6-((2-(cis-3-fluoro-4-methoxypiperidin-1-yl)pyrimidin-4-yl)amino)-4-(isopropylamino)pyri-din-3-yl)(3-((methylsulfonyl)meth-yl)azetidin-1-yl)methanone]	> 7.30
CC(C)Nc1cc(Nc2ccnc(-c3cnn(S(=O)(=O)C4CC4)c3)n2)ncc1C(=O)N(C)CC#N [Example 28, N-(cyanomethyl)-6-((2-(1-(cyclopropylsulfonyl)-1H-pyrazol-4-yl)pyrimidin-4-yl)amino)-4-(isopropylamino)-N-methylnicotinamide]	6.30 to 7.30
CC(C)Nc1cc(Nc2ccnc(N3CCN(C)CC3)n2)ncc1C(=O)N1CC(CS(C)(=O)=O)C1 [Example 11, (4-(isopyropylamino)-4-((2-(4-methylpiperazin-1-yl)pyrimidin-4-yl)amino)pyridin-3-yl)(3-((methylsulfonyl)meth-yl)azetidin-1-yl)methanone]	6.30 to 7.30
CC(C)Nc1cc(Nc2ccnc(-c3cnn(S(=O)(=O)C4CC4)c3)n2)ncc1C(=O)N1CC(N(C)C)C1 [Example 37, (6-((2-(1-(cyclopropylsulfonyl)-1H-pyrazol-4-yl)pyrimidin-4-yl)amino)-4-(isopropylamino)pyri-din-3-yl)(3-(dimethylamino)azeti-din-1-yl)methanone]	> 7.30
CC(C)Nc1cc(Nc2ccnc(-c3cnn(CC4CC4)c3)n2)ncc1C(=O)N1CC(CS(C)(=O)=O)C1 [Example 43, (6-((2-(1-(cyclopropylmethyl)-1H-pyrazol-4-yl)pyrimidin-4-yl)amino)-4-(isopropylamino)pyri-din-3-yl)(3-((methylsulfonyl)meth-yl)azetidin-1-yl)methanone]	> 7.30

The remaining lines, values ahead:

pIC50	SMILES
6.30 to 7.30	Cn1cc(Nc2cc(Nc3ccnc(-c4cnn(S(=O)(=O)C5CC5)c4)n3)ncc2C(=O)N2CC(CS(C)(=O)=O)C2)cn1 [Example 22, (6-((2-(1-(cyclopropylsulfonyl)-1H-pyrazol-4-yl)pyrimidin-4-yl)amino)-4-((1-methyl-1H-pyrazol-4-yl)amino)pyridin-3-yl)(3-((methylsulfonyl)meth-yl)azetidin-1-yl)methanone]
6.30 to 7.30	CC(C)Nc1cc(Nc2ccnc(-c3cnn(S(=O)(=O)C4CC4)c3)n2)ncc1C(=O)NCCC(C)c1ccccc1 (stereo not shown) [Example 54, 6-((2-(1-(cyclopropylsulfonyl)-1H-pyrazol-4-yl)pyrimidin-4-yl)amino)-4-(isopropylamino)-N-(3-phenylbutyl)nicotina-mide]
> 7.30	C[C@H]1CCOc2c(cnn2C)-c2nccc(n2)Nc2cc(c(C(=O)O)cn2)N1 [Example 117, (S)-1^1,6-dimethyl-1^1H-9-oxa-3,5-diaza-2(2,4)-pyrimidina-4(2,4)-pyridina-1(4,5)-pyrazolacyclo-nonaphane-4^5-carboxylic acid]
> 7.30	CC(C)Nc1cc(Nc2ccnc(-c3cnn(S(=O)(=O)C4CC4)c3)n2)ncc1NC(=O)Cc1ccc(C#N)cc1 [Example 85, 2-(4-cyanophenyl)-N-(6-((2-(1-(cyclopropylsulfonyl)-1H-pyrazol-4-yl)pyrimidin-4-yl)amino)-4-(isopropylamin)pyri-din-3-yl)acetamide]
> 7.30	CC(C)Nc1cc(Nc2ccnc(-c3cnn(S(=O)(=O)C4CC4)c3)n2)ncc1C(=O)NC[C@H]1CCCN1 [Example 77, (R)-6-((2-(1-(cyclopropylsulfonyl)-1H-pyrazol-4-yl)pyrimidin-4-yl)amino)-4-(isopropylamino)-N-(pyrrolidin-2-ylmethyl)nicotinamide]
> 7.30	CC(C)Nc1cc(Nc2ccnc(-c3cnn(S(=O)(=O)C4CC4)c3)n2)ncc1C(=O)Nc1cc(N2CCC(N3CCN(C)CC3)CC2)cc(S(C)(=O)=O)c1 [Example 75, 6-((2-(1-(cyclopropylsulfonyl)-1H-pyrazol-4-yl)pyrimidin-4-yl)amino)-4-(isopropylamino)-N-(3-(4-(4-methylpiperazin-1-yl)piperidin-1-yl)-5-(methyl-sulfonyl)phenyl) nicotinamide]
> 7.30	C[C@@H]1CCOc2c(cnn2C)-c2nccc(n2)Nc2cc(c(C(=O)NCC#N)cn2)N1 [Example 84, (R)-N-(cyanomethyl)-1^1,6-dimethyl-1^1H-9-oxa-3,5-diaza-2(2,4)-pyrimidina-4(2,4)-pyridina-1(4,5)-pyrazolacyclo-nonaphane-4^5-carboxamide]
> 7.30	CC(C)Nc1cc(Nc2ccnc(-c3cnn(S(=O)(=O)C4CC4)c3)n2)ncc1C(=O)NCCc1ccccc1 [Example 52, 6-((2-(1-(cyclopropylsulfonyl)-1H-pyrazol-4-yl)pyrimidin-4-yl)amino)-4-(isopropylamino)-N-phenethylnicotinamide]
6.30 to 7.30	C[C@H]1CCOc2c(cnn2C)-c2nccc(n2)Nc2cc(c(C(=O)Nc3cccc(C(F)(F)F)c3)cn2)N1 [Example 101, (S)-1^1,6-dimethyl-N-(3-(trifluoromethyl)phe-nyl)-1^1H-9-oxa-3,5-diaza-2(2,4)-pyrimidina-4(2,4)-pyridina-1(4,5)-pyrazolacyclo-nonaphane-4^5-carboxamide]
> 7.30	CC(C)Nc1cc(Nc2ccnc(-c3cn[nH]c3)n2)ncc1C(=O)NC1CCNC1 (stereo not shown) [Example 67, 6-((2-(1H-pyrazol-4-yl)pyrimidin-4-yl)amino)-4-(isopropylamino)-N-(pyrrolidin-3-yl)nicotinamide]
